Patent US6737383B1, “Herbicidal oxadiazolidines” (priority 1999, dated 2004)

How the values were obtained:
sugar beet = assay: Test B pre/postemergence sugar beet; type: in vivo, Beta vulgaris
In short: (§1)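 Response is a visual 0-to-10 score relative to untreated plants, where 0 means no effect and 10 means complete control, taken twelve to sixteen days after application. Treatments went onto soil at planting and onto foliage of 1- to 4-leaf plants, using a surfactant-containing non-phytotoxic solvent.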

wheat = assay: Test B pre/postemergence wheat; type: in vivo, Triticum aestivum
In short: as §1

crabgrass = assay: Test B pre/postemergence crabgrass; type: in vivo, Digitaria sanguinalis
In short: as §1

morningglory = assay: Test B pre/postemergence morningglory; type: in vivo, Ipomoea hederacea
In short: as §1

soybean = assay: Test B pre/postemergence soybean; type: in vivo, Glycine max
In short: as §1

bedstraw = assay: Test B pre/postemergence bedstraw; type: in vivo, Galium aparine
In short: as §1

velvetleaf = assay: Test B pre/postemergence velvetleaf; type: in vivo, Abutilon theophrasti
In short: as §1

surinam grass = assay: Test B pre/postemergence surinam grass; type: in vivo, Brachiaria decumbens
In short: as §1

blackgrass = assay: Test B pre/postemergence blackgrass; type: in vivo, Alopecurus myosuroides
In short: as §1

cocklebur = assay: Test B pre/postemergence cocklebur; type: in vivo, Xanthium strumarium
In short: as §1

purple nutsedge = assay: Test B pre/postemergence purple nutsedge; type: in vivo, Cyperus rotundus
In short: as §1

corn = assay: Test B pre/postemergence corn; type: in vivo, Zea mays
In short: as §1

wild oat = assay: Test B pre/postemergence wild oat; type: in vivo, Avena fatua
In short: as §1

rape = assay: Test B pre/postemergence rape; type: in vivo, Brassica napus
In short: as §1

giant foxtail = assay: Test B pre/postemergence giant foxtail; type: in vivo, Setaria faberii
In short: as §1

pigweed = assay: Test B pre/postemergence pigweed; type: in vivo, Amaranthus retroflexus
In short: as §1

[1] = Postemergence, Rate 62 g/ha, scale 0 to 10, 0 is no effect, 10 is complete control
[2] = Postemergence, Rate 125 g/ha, scale of 0 to 10 where 0 is no effect and 10 is complete control
[3] = Preemergence, Rate 125 g/ha, scale of 0 to 10 where 0 is no effect and 10 is complete control
[4] = Preemergence, Rate 250 g/ha, scale 0 (no effect) to 10 (complete control)
[5] = Rate 62 g/ha, Preemergence, scale 0 to 10
[6] = Rate 250 g/ha, Postemergence, scale 0 to 10, 0 is no effect, 10 is complete control
[7] = Rate 500 g/ha, Postemergence, scale 0 to 10, 0 is no effect, 10 is complete control
[8] = Rate 500 g/ha, Preemergence, scale 0 to 10 (0 no effect, 10 complete control)

## CC(C)N(C(=O)n1oc(=O)n(C[C@H](C)Cl)c1=O)c1ccccc1 [Compound 747]
Sugar beet; [1]
  Plant response rating, Sugarbeets: 0
Sugar beet; [2]
  Sugarbeets plant response rating: 0
Sugar beet; [3]
  Plant response rating, Sugarbeets: 6
Sugar beet; [4]
  Sugarbeets plant response rating: 7
Sugar beet; [5]
  Sugarbeets plant response rating: 4
Sugar beet; [6]
  Sugarbeets plant response rating: 0
Sugar beet; [7]
  Sugarbeets plant response rating: 3
wheat; [1]
  Plant response rating, Wheat: 0
wheat; [2]
  Wheat plant response rating: 0
wheat; [4]
  Wheat plant response rating: 0
wheat; [5]
  Wheat plant response rating: 0
wheat; [6]
  Wheat plant response rating: 4
wheat; [7]
  Wheat plant response rating: 4
crabgrass; [1]
  Plant response rating, Crabgrass: 3
crabgrass; [2]
  Crabgrass plant response rating: 9
crabgrass; [3]
  Plant response rating, Crabgrass: 10
crabgrass; [4]
  Crabgrass plant response rating: 10
crabgrass; [5]
  Crabgrass plant response rating: 10
crabgrass; [6]
  Crabgrass plant response rating: 9
crabgrass; [7]
  Crabgrass plant response rating: 9
crabgrass; [8]
  Crabgrass plant response rating: 10
morningglory; [1]
  Plant response rating, Morningglory: 2
morningglory; [2]
  Morningglory plant response rating: 9
morningglory; [3]
  Plant response rating, Morningglory: 0
morningglory; [4]
  Morningglory plant response rating: 0
morningglory; [5]
  Morningglory plant response rating: 0
morningglory; [6]
  Morningglory plant response rating: 10
morningglory; [7]
  Morningglory plant response rating: 10
morningglory; [8]
  Morningglory plant response rating: 7
soybean; [1]
  Plant response rating, Soybean: 4
soybean; [2]
  Soybean plant response rating: 4
soybean; [3]
  Plant response rating, Soybean: 0
soybean; [4]
  Soybean plant response rating: 0
soybean; [5]
  Soybean plant response rating: 0
soybean; [6]
  Soybean plant response rating: 7
soybean; [7]
  Soybean plant response rating: 8
soybean; [8]
  Soybean plant response rating: 9
bedstraw; [1]
  Plant response rating, Bedstraw: 8
bedstraw; [2]
  Bedstraw plant response rating: 8
bedstraw; [3]
  Plant response rating, Bedstraw: 0
bedstraw; [5]
  Bedstraw plant response rating: 0
bedstraw; [8]
  Bedstraw plant response rating: 0
velvetleaf; [1]
  Plant response rating, Velvetleaf: 0
velvetleaf; [2]
  Velvetleaf plant response rating: 4
velvetleaf; [3]
  Plant response rating, Velvetleaf: 6
velvetleaf; [4]
  Velvetleaf plant response rating: 7
velvetleaf; [5]
  Velvetleaf plant response rating: 4
velvetleaf; [6]
  Velvetleaf plant response rating: 4
velvetleaf; [7]
  Velvetleaf plant response rating: 7
velvetleaf; [8]
  Velvetleaf plant response rating: 7
Surinam grass; [1]
  Plant response rating, B. signalgrass: 1
Surinam grass; [2]
  B. signalgrass plant response rating: 3
Surinam grass; Preemergence, Rate 62 g/ha, scale of 0 to 10 where 0 is no effect and 10 is complete control
  B. signalgrass plant response rating: 7
Surinam grass; [3]
  Plant response rating, B. signalgrass: 8
Surinam grass; [6]
  B. signalgrass plant response rating: 4
Surinam grass; [7]
  B. signalgrass plant response rating: 6
Surinam grass; [8]
  B. signalgrass plant response rating: 9
blackgrass; [1]
  Plant response rating, Blackgrass: 5
blackgrass; [2]
  Blackgrass plant response rating: 7
blackgrass; [3]
  Plant response rating, Blackgrass: 8
blackgrass; [5]
  Blackgrass plant response rating: 8
blackgrass; [6]
  Blackgrass plant response rating: 8
blackgrass; [7]
  Blackgrass plant response rating: 8
blackgrass; [8]
  Blackgrass plant response rating: 8
cocklebur; [1]
  Plant response rating, Cocklebur: 0
cocklebur; [2]
  Cocklebur plant response rating: 0
cocklebur; [4]
  Cocklebur plant response rating: 0
cocklebur; [5]
  Cocklebur plant response rating: 0
cocklebur; [6]
  Cocklebur plant response rating: 2
cocklebur; [7]
  Cocklebur plant response rating: 4
cocklebur; [8]
  Cocklebur plant response rating: 0
Purple nutsedge; [1]
  Plant response rating, Nutsedge: 0
Purple nutsedge; [2]
  Nutsedge plant response rating: 0
Purple nutsedge; [3]
  Plant response rating, Nutsedge: 2
Purple nutsedge; [4]
  Nutsedge plant response rating: 4
Purple nutsedge; [5]
  Nutsedge plant response rating: 0
Purple nutsedge; [6]
  Nutsedge plant response rating: 0
Purple nutsedge; [7]
  Nutsedge plant response rating: 0
Purple nutsedge; [8]
  Nutsedge plant response rating: 2
corn; [1]
  Plant response rating, Corn: 0
corn; [2]
  Corn plant response rating: 0
corn; [3]
  Plant response rating, Corn: 2
corn; [4]
  Corn plant response rating: 6
corn; [5]
  Corn plant response rating: 2
corn; [6]
  Corn plant response rating: 4
corn; [7]
  Corn plant response rating: 5
corn; [8]
  Corn plant response rating: 9
Wild oat; [1]
  Plant response rating, Wild oats: 0
Wild oat; [2]
  Wild oats plant response rating: 0
Wild oat; [4]
  Wild oats plant response rating: 3
Wild oat; [5]
  Wild oats plant response rating: 3
Wild oat; [6]
  Wild oats plant response rating: 2
Wild oat; [7]
  Wild oats plant response rating: 2
rape; [1]
  Plant response rating, Rape: 4
rape; [2]
  Rape plant response rating: 4
rape; [3]
  Plant response rating, Rape: 9
rape; [4]
  Rape plant response rating: 10
rape; [5]
  Rape plant response rating: 7
rape; [6]
  Rape plant response rating: 4
rape; [7]
  Rape plant response rating: 9
Giant foxtail; [1]
  Plant response rating, Giant foxtail: 8
Giant foxtail; [2]
  Giant foxtail plant response rating: 9
Giant foxtail; [3]
  Plant response rating, Giant foxtail: 10
Giant foxtail; [4]
  Giant foxtail plant response rating: 10
Giant foxtail; [5]
  Giant foxtail plant response rating: 10
Giant foxtail; [6]
  Giant foxtail plant response rating: 9
Giant foxtail; [7]
  Giant foxtail plant response rating: 9
Giant foxtail; [8]
  Giant foxtail plant response rating: 10
pigweed; [1]
  Plant response rating, Redroot pigweed: 4
pigweed; [2]
  Redroot pigweed plant response rating: 4
pigweed; [4]
  Redroot pigweed plant response rating: 8
pigweed; [5]
  Redroot pigweed plant response rating: 8
pigweed; [6]
  Redroot pigweed plant response rating: 7
pigweed; [7]
  Redroot pigweed plant response rating: 8
